Reference: ChEMBL document CHEMBL1144481, “Cholinesterase inhibitors: SAR and enzyme inhibitory activity of 3-[omega-(benzylmethylamino)alkoxy]xanthen-9-ones” (Bioorg Med Chem, 2007)

Columns and labels:
[1] = organism: Homo sapiens; assay: Ratio of IC50 for BuChE to IC50 for AchE
[2] = target: Cholinesterase (Homo sapiens, UniProt P06276); assay: Inhibition of human serum BuChE
[3] = organism: Homo sapiens; assay: Ratio of IC50 for AchE to IC50 for BuChE
[4] = target: Acetylcholinesterase (Homo sapiens, UniProt P22303); assay: Inhibition of human erythrocyte AchE
Acetylcholinesterase, sequence (P22303 whole entry): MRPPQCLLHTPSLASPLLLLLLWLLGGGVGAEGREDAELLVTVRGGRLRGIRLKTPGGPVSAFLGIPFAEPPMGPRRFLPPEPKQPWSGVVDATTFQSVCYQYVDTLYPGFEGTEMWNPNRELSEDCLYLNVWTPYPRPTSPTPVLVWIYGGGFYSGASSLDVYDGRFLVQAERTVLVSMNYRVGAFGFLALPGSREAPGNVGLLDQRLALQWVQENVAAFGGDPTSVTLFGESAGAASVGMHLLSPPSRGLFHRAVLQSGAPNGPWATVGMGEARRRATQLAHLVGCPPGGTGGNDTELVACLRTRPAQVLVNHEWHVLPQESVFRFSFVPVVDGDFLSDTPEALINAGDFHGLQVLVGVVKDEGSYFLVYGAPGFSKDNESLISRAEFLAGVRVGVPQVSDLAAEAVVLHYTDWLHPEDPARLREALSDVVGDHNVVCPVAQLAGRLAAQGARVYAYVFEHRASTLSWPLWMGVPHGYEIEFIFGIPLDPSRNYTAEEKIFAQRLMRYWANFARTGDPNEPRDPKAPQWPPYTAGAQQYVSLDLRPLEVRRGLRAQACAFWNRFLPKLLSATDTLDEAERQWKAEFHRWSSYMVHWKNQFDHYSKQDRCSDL

Cholinesterase, sequence (P06276 whole entry): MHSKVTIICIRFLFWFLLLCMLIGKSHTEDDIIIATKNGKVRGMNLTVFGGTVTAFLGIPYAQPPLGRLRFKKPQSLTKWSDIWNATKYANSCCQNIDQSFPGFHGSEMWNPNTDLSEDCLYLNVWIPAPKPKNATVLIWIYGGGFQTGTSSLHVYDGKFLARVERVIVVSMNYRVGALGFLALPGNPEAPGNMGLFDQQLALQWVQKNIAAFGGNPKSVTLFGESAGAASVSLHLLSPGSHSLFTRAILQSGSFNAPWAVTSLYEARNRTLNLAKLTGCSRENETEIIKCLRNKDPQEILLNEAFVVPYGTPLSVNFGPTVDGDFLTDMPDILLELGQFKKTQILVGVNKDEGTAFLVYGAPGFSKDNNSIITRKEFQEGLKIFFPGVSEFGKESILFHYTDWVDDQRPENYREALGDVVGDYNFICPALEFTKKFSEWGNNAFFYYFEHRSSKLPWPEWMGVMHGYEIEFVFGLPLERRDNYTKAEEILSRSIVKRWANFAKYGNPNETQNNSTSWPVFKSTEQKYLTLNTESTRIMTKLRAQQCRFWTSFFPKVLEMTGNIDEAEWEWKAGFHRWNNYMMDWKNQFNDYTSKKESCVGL

Compound | Ratio IC50 [1] | IC50 [2] | Ratio IC50 [3] | IC50 [4]
CN(CCCCCCOc1ccc2c(=O)c3ccccc3oc2c1)Cc1ccccc1 | 0.49 | 1.43 µM | 2.02 | 2.89 µM
COc1ccc2c(=O)c3ccc(OCCCCCCCN(C)Cc4ccccc4)cc3oc2c1 | 5.9 | 46.1 µM | 0.17 | 7.84 µM
CN(CCCCCCCOc1ccc2c(=O)c3ccccc3oc2c1)Cc1ccccc1Cl | 0.62 | 269 µM | 1.6 | 433 µM
CN(CCCCCCCOc1ccc2c(=O)c3ccccc3oc2c1)Cc1cccc(Cl)c1 | 0.1 | 63.8 µM | 9.3 | 594 µM
CN(CCCCOc1ccc2c(=O)c3ccccc3oc2c1)Cc1ccccc1 | 0.42 | 2.65 µM | 2.36 | 6.25 µM
COc1cccc(CN(C)CCCCCCCOc2ccc3c(=O)c4ccccc4oc3c2)c1OC | 0.014 | 2.01 µM | 68.7 | 138 µM
CNC(=O)Oc1cccc(CN(C)CCCCCCCOc2ccc3c(=O)c4ccccc4oc3c2)c1 | 51.6 | – | 0.019 | –
CN(CCCCCCCCCCCOc1ccc2c(=O)c3ccccc3oc2c1)Cc1ccccc1 | – | – | 5220 | –
Cc1ccccc1CN(C)CCCCCCCOc1ccc2c(=O)c3ccccc3oc2c1 | 0.05 | 29.5 µM | 19.1 | 565 µM
COc1ccc(CN(C)CCCCCCCOc2ccc3c(=O)c4ccccc4oc3c2)c(OC)c1OC | 0.006 | 1 µM | 155 | 155 µM
CN(CCCCCCCCCCOc1ccc2c(=O)c3ccccc3oc2c1)Cc1ccccc1 | – | – | 3880 | –
COc1cc2oc3cc(OCCCCCCCN(C)Cc4ccccc4)ccc3c(=O)c2cc1OC | 1.33 | 3.08 µM | 0.75 | 2.32 µM
COc1ccccc1CN(C)CCCOc1ccc2c(=O)c3ccccc3oc2c1 | 0.56 | 1.91 µM | 1.78 | 3.4 µM
CCN(CCCCCCCOc1ccc2c(=O)c3ccccc3oc2c1)Cc1ccccc1OC | 0.1 | 0.32 µM | 9.8 | 3.15 µM
CN(CCCCCCCCCOc1ccc2c(=O)c3ccccc3oc2c1)Cc1ccccc1 | – | – | 1520 | –
CN(CCCCCCCOc1ccc2c(=O)c3ccccc3oc2c1)Cc1ccc(Cl)cc1 | 0.12 | 127 µM | 8.26 | 1050 µM
COc1cccc(CN(C)CCCCCCCOc2ccc3c(=O)c4ccccc4oc3c2)c1 | 0.05 | 1.85 µM | 21.6 | 40 µM
COc1ccc(OC)c(CN(C)CCCCCCCOc2ccc3c(=O)c4ccccc4oc3c2)c1 | 0.01 | 1.27 µM | 100 | 127 µM
CN(CCCOc1ccc2c(=O)c3ccccc3oc2c1)Cc1ccccc1 | 3.11 | 8.33 µM | 0.32 | 2.68 µM
CN(CCCCCCCCOc1ccc2c(=O)c3ccccc3oc2c1)Cc1ccccc1 | 0.008 | 0.08 µM | 129 | 10.3 µM
CN(CCCCCCCOc1ccc2c(=O)c3ccccc3oc2c1)Cc1ccccc1[N+](=O)[O-] | 0.03 | 14 µM | 29.5 | 413 µM
COc1ccc(CN(C)CCCCCCCOc2ccc3c(=O)c4ccccc4oc3c2)cc1 | 0.006 | 2.11 µM | 171 | 360 µM
CN(CCCCCOc1ccc2c(=O)c3ccccc3oc2c1)Cc1ccccc1 | 0.32 | 2.49 µM | 3.12 | 7.78 µM
CN(CCCCCCCCCCCCOc1ccc2c(=O)c3ccccc3oc2c1)Cc1ccccc1 | – | – | 6050 | –
COc1ccccc1CN(C)CCCCCCCOc1ccc2c(=O)c3ccccc3oc2c1 | 0.43 | 0.93 µM | 2.34 | 2.18 µM
CN(CCCCCCCOc1ccc2c(=O)c3ccccc3oc2c1)Cc1ccccc1 | 0.28 | 0.8 µM | 3.52 | 2.82 µM
